# Measured values published in patent publication US4067997A, “Synergistic microbecidal composition and method” (priority 1976, dated 1978).
# Key:
# [1] = 60 minute reading, colony forming units (Examples VIII, X, XII); assay type: cell-based; settings: Table 18; base line 2.2 × 10^6CFU
# Procedure: The results of this experiment are recorded in the 60 minute reading.
# Streptococcus mutans = test: MIC on mass basis (Example V procedure); assay type: cell-based, Streptococcus mutans (ATCC 10441)
# Procedure: (§1) The essential procedure of Example I was followed with a series of phenolic compounds, with the exception that the test method was conducted on a mass (μg/ml) basis rather than a molecular (mol/ml) basis of the foregoing tests, since the long established phenol-coeffecient test is on a mass rather than molecular basis. Additionally, a different but closely related group of organisms were used in this test, in order to give a complete representative span on gram-negative, gram-positive and fungus organisms. Additionally, the phenolic derivatives chosen for test purposes include a number of derivatives which are presently accepted by the FDA as food-grade phenolic microbicides.
# The same procedure of Example V was repeated but with combinations of mono-laurin (GML).
# The procedure of Example V was repeated with combinations of glycerol mono-laurin (GML) and ethylenediamine tetraacetic acid (EDTA) as the calcium salt and in combination with BHA.
# Streptococcus pyogenes = test: MIC on mass basis (Example V procedure); assay type: cell-based
# Procedure: as §1
# [2] = tested on: Streptococcus faecalis (Group D); test: MIC on mass basis (Example V procedure); assay type: cell-based
# Procedure: as §1
# Corynebacterium sp. = test: MIC on mass basis (Example V procedure); assay type: cell-based
# Procedure: as §1
structure (smiles),measurement,setting,value
"CCCCCCCCCCCC(=O)OCC(O)CO (stereo not drawn) [GML, glycerol mono-laurin]",60 Minute Reading,[1],9.7 × 10^5 CFU
same,MIC,"Streptococcus mutans; Table 13, Streptococcus mutans",31.25 µg/mL
same,MIC,"Streptococcus mutans; Table 14, Streptococcus mutans",31.25 µg/mL
same,MIC,"Streptococcus pyogenes; Table 16, Streptococcus pyogenes, no unit in table",10
same,MIC of GML,"Streptococcus pyogenes; Table 17, EDTA 0",< 10 µg/mL
same,MIC of GML,"Streptococcus pyogenes; Table 17, EDTA 125",< 10 µg/mL
same,MIC of GML,"Streptococcus pyogenes; Table 17, EDTA 250",< 10 µg/mL
same,MIC of GML,"Streptococcus pyogenes; Table 17, EDTA 500",< 10 µg/mL
same,MIC of GML,"Streptococcus pyogenes; Table 17, EDTA 1,000",< 10 µg/mL
same,MIC of GML,"Streptococcus pyogenes; Table 17, EDTA 5,000",< 10 µg/mL
same,MIC of GML,"Streptococcus pyogenes; Table 17, EDTA 10,000",< 10 µg/mL
same,MIC,"[2]; Table 16, Streptococcus faecalis (Group D), no unit in table","> 1,000"
same,MIC of GML,"[2]; Table 17, EDTA 0","> 10,000 μg/ml"
same,MIC of GML,"[2]; Table 17, EDTA 125","> 10,000 μg/ml"
same,MIC of GML,"[2]; Table 17, EDTA 250","> 10,000 μg/ml"
same,MIC of GML,"[2]; Table 17, EDTA 500","> 10,000 μg/ml"
same,MIC of GML,"[2]; Table 17, EDTA 1,000","1,000 μg/ml"
same,MIC of GML,"[2]; Table 17, EDTA 5,000",< 10 µg/mL
same,MIC of GML,"[2]; Table 17, EDTA 10,000",< 10 µg/mL
same,MIC,"Corynebacterium sp.; Table 16, Corynebacterium sp., no unit in table",10
same,MIC of GML,"Corynebacterium sp.; Table 17, EDTA 0",< 10 µg/mL
same,MIC of GML,"Corynebacterium sp.; Table 17, EDTA 125",< 10 µg/mL
same,MIC of GML,"Corynebacterium sp.; Table 17, EDTA 250",< 10 µg/mL
same,MIC of GML,"Corynebacterium sp.; Table 17, EDTA 500",< 10 µg/mL
same,MIC of GML,"Corynebacterium sp.; Table 17, EDTA 1,000",< 10 µg/mL
same,MIC of GML,"Corynebacterium sp.; Table 17, EDTA 5,000",< 10 µg/mL
same,MIC of GML,"Corynebacterium sp.; Table 17, EDTA 10,000",< 10 µg/mL
